Reference: patent US9249095B2, “2-methylthiopyrrolidines and their use for modulating bacterial quorum sensing” (priority 2011, dated 2016)

How the values were obtained:
LasR = LasR (Pseudomonas aeruginosa, UniProt P25084); conditions: Smith et al, reference 9; cited from earlier work
[1] = system: P. aeruginosa las AHL-mediated pathway (PlasI-lacZ reporter); test: Anti-quorum sensing β-galactosidase assay, las biomonitor (PlasI-lacZ with lasR expressed in E. coli DH5α); format: cell-based, Pseudomonas aeruginosa; conditions: for effect on las activity / lasI promoter expression (in words): tested at 50-200 μg/mL against 2 μM 3-oxo-C12-AHL
Procedure: Anti-Quorum Sensing Assay (β-Galactosidase Assay). An overnight (O/N) culture of Escherichia coli DH5α harboring the plasmids pSC11, which contains a PlasI-lacZ translational fusion (24), and pJN105L, which contains a PBAD-lasR expression plasmid (25) grown in LB media (10 g tryptone, 5 g yeast extract, 5 g sodium chloride per liter) supplemented with ampillicin (100 μg/ml) and gentamycin (15 μg/ml), was diluted to an OD600 of 0.150. At this time, arabinose (0.2% w/v), N-3-(oxododecanoyl)homoserine lactone (3-oxo-C12-AHL; 2 μM), and either the compound under analysis or solvent (DMSO), was added to the culture (1.5 mL). A negative control containing only solvent and arabinose (0.2% w/v) was also assayed. The cultures were incubated with shaking for three hours at 37° C.
(§1) The conditions for the rhl biomonitor Escherichia coli DH5α harboring pECP61.5 plasmid, which contains Ptac-rhlR and PrhlA-lacZ (4), were essentially same except that the LB medium was only supplemented with ampillicin (100 μg/ml), the O/N culture was diluted to an OD600 of 0.150, induced with 1 mM IPTG, 2 μM C4—HSL and the compounds or the controls added when the OD600 reached 1.0. After incubation at 37° C. for 4 hours with shaking, β-galactosidase activity was assayed as described previously (28). Miller units were calculated as described (29). Assays were repeated at least twice. For each biological replicate, experimental triplicates were performed and the average percent activity calculated by dividing the average Miller units from the samples containing compound or extract by the average Miller units from the sample containing solvent and multiplying by 100. Significance of inhibition was determined using a paired two-tailed Student t-test.
(§2) Strains: E. coli DH5α harboring a PBAD-lasR expression plasmid and a PlasI-lacZ translational fusion plasmid was used as a biomonitor for the P. aeruginosa Las QS system, and e. coli XL-1Blue harboring a plasmid containing rhlA::lacZ translational fusion and Ptac-rhlR was used as a biomonitor for the P. aeruginosa Rhl QS system. V. harveyi strain B392 (MAV) was used.
Screening against las signaling. To determine the effect of the lactams (7, 16, and 17) and the cyclic azahemiacetal derivatives (10, 20 and 21) on the P. aeruginosa las AHL-mediated pathway, a las-dependent β-galactosidase reporter (PlasI-lacZ) was expressed with lasR in E. coli (24-25). […] The effect of synthetic compounds on the las activity was also compared with the addition of DMSO as a solvent. The propylthio lactam 7a and its azahemiacetal counterpart 10a were initially screened at a concentration of 100 μg/mL for their activity against the las system. […] This was dependent upon the addition of 2 μM of 3-oxo-C12-AHL. […] Cell growth was not inhibited by the addition of lactam and azahemiacetal compounds at the tested concentrations (data not shown).

Vibrio harveyi = test: Luminescence assay in Vibrio harveyi; format: cell-based
Procedure: Luminescence Assay: Vibrio harveyi was grown in AB medium. A 2.5 mL aliquot of overnight culture of V. harveyi was added to 2.5 μL and 10 μL of each compound as well as the solvent. The compound was dissolved in water or DMSO to serve as a control. Growth and luminescence were measured simultaneously in a modified Spec20 for three hours. Growth was measured as OD600 and luminescence was recorded in light units (1 LU=6.51×10^8 quanta/sec/mL).
as §2

[2] = system: P. aeruginosa rhl AHL-mediated pathway (PrhlA-lacZ reporter); test: Anti-quorum sensing β-galactosidase assay, rhl biomonitor (PrhlA-lacZ with rhlR expressed in E. coli); format: cell-based, Pseudomonas aeruginosa; conditions: for activity at 50 µg/mL / activity at 100 µg/mL / activity at 150 µg/mL / activity at 200 µg/mL: Escherichia coli, 4 h, read-out: Percent Activity ± Standard Deviation (PrhlA-lacZ expression relative to DMSO treated control); for effect on rhl activity (in words): tested at 50-200 μg/mL against 2 μM C4-AHL
Procedure: as §1, §2
Screening Against the rhl Pathway. To determine the effect of the lactams (7, 16, and 17) and the cyclic azahemiacetal derivatives (10, 20 and 21) on the P. aeruginosa rhl AHL-mediated pathways, a rhl-dependent β-galactosidase reporter (PrhlA-lacZ) was expressed with rhlR in E. coli (24-25). […] The lactam analogues 7a-d stimulated rhl QS activities at higher concentrations with moderate potency. […] The strong inhibition observed with propylthio 10a and hexylthio 10b azahemiacetal analogues having side chain lengths similar to C4-AHL is in agreement with the structure activity relationship reported for various synthetic AHL mimetics targeting RhlR (26).

[3] = Pseudomonas aeruginosa, read-out: inhibition of las activity
[4] = Pseudomonas aeruginosa, read-out: inhibition of las reporter activity

Chain of LasR (P25084 whole entry): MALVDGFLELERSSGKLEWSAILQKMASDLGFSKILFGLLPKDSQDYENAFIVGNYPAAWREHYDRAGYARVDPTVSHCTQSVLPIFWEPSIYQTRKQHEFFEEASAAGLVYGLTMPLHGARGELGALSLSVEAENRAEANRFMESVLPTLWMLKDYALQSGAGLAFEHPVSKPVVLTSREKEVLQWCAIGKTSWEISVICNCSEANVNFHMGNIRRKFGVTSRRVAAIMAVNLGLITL

Row | SMILES | effect on las activity / lasI promoter expression (in words) [1] | activity at 50 µg/mL [2] [%] | activity at 100 µg/mL [2] [%] | activity at 150 µg/mL [2] [%] | activity at 200 µg/mL [2] [%] | effect on rhl activity (in words) [2] | also measured
1 | CCCCCCCCCC(=O)CC(=O)NC1CCCCC1=O (stereo not shown) [3-oxo-C12-(2-aminocyclohexanone)] |  |  |  |  |  |  | antagonism of LasR system (in words) (LasR): strong antagonist
2 | CCCCCCCCCC(=O)CC(=O)N[C@H]1CCOC1=O [3-oxo-C12-AHL, N-3-(oxododecanoyl)homoserine lactone, reference compound] | activated the PlasI-lacZ |  |  |  |  |  | 
3 | N[C@@H](CCSCC1C(O)C(O)C(=O)N1Cc1ccccc1)C(=O)O (stereo partly shown) [BDOH] |  |  |  |  |  |  | anti-QS effect against V. harveyi (in words) (Vibrio harveyi): strong anti-QS effect
4 | CCCSCC1CCC(=O)N1 (stereo not shown) [Compound 7a, 5-(Propylthiomethyl)pyrrolidin-2-one] | inhibited las activity at all concentrations tested | 104 ± 24 | 118 | 104 ± 13 | 108 ± 17 |  | inhibition at 100 µg/mL [1, 3]: ~28%; effect on las activity / lasI promoter expression (in words) ([1]; listed as OMPP): dosed dependent inhibition
5 | CCCCCCSCC1CCC(=O)N1 (stereo not shown) [Compound 7b, 5-(Hexylthiomethyl)pyrrolidin-2-one] | dosed dependent inhibition | 126 ± 8 | 126 ± 29 | 130 ± 31 |  | most active | 
6 | CCCCCCCCCSCC1CCC(=O)N1 (stereo not shown) [Compound 7c, 5-(Nonylthiomethyl)pyrrolidin-2-one] | greatest inhibition at all concentrations tested | 95 ± 3 | 115 ± 30 | 108 ± 12 | 137 ± 46 |  | inhibition at 50 µg/mL [1, 3]: 28%
7 | CCCCCCCCCCCCSCC1CCC(=O)N1 (stereo not shown) [Compound 7d, 5-(Dodecylthiomethyl)pyrrolidin-2-one] | greatest inhibition at all concentrations tested | 103 ± 7 | 106 ± 6 | 109 ± 8 | 106 ± 5 |  | inhibition at 50 µg/mL [1, 3]: 48%
8 | CCCSCC1CCC(O)N1 (stereo not shown) [Compound 10a, 5-(Propylthiomethyl)pyrrolidin-2-ol] |  | 121 ± 6 | 138 ± 3 |  | 9 | inhibited rhl activity | stimulation of las reporter activity ([1]; 50 μg/mL, 2 μM 3-oxo-C12-AHL): ~2.3 fold; enhancement of las reporter activity ([1]; 100 μg/mL, 2 μM 3-oxo-C12-AHL): 15%; inhibition at 150 µg/mL [1, 4]: 69%; inhibition at 200 µg/mL [1, 4]: 89%; anti-QS effect against V. harveyi (in words) (Vibrio harveyi): strong anti-QS effect
9 | CCCCCCSCC1CCC(O)N1 (stereo not shown) [Compound 10b, 5-(Hexylthiomethyl)pyrrolidin-2-ol] | stimulated QS at 50 μg/mL but with much lesser potency | 26 |  |  |  | inhibited rhl activity | inhibition of rhl signaling (in words) ([2]; concentrations of 100 μg/mL and higher): completely inhibited; inhibition of las activity ([1]; all concentrations tested higher than 50 μg/mL): 100%
10 | CCCCCCCCCSCC1CCC(O)N1 (stereo not shown) [Compound 10c, 5-(Nonanylthiomethyl)pyrrolidin-2-ol] | moderate activity | 93 ± 12 | 80 ± 13 | 100 ± 11 | 99 ± 3 | inactive | 
11 | CCCCCCCCCCCCSCC1CCC(O)N1 (stereo not shown) [Compound 10d, 5-(Dodecylthiomethyl)pyrrolidin-2-ol] | moderate activity | 98 ± 13 | 93 ± 27 | 91 ± 8 | 96 ± 5 | inactive | 
12 | CCCCCCSCC1NC(=O)C(O)C1O (stereo not shown) [Compound 16, 3,4-Dihydroxy-5-(hexylthiomethyl)pyrrolidin-2-one] | inhibit las activity at all concentrations tested but only with moderate potency | 132 ± 36 | 129 ± 10 | 148 ± 9 | 161 ± 7 | stimulated rhl activities with moderate potency | 
13 | CCCCCCCCCSCC1NC(=O)C(O)C1O (stereo not shown) [Compound 17, 3,4-Dihydroxy-5-(nonylthiomethyl)pyrrolidin-2-one] | inhibit las activity at all concentrations tested but only with moderate potency | 106 ± 3 |  | 115 ± 11 | 135 ± 5 | stimulated rhl activities with moderate potency | 
14 | CCCCCCSCC1NC(O)C(O)C1O (stereo not shown) [Compound 20, 3,4-Dihydroxy-5-(hexylthiomethyl)pyrrolidin-2-ol] | inhibit las activity at all concentrations tested but only with moderate potency | 94 ± 8 | 105 ± 3 | 109 ± 12 | 116 ± 18 | stimulated rhl activities with moderate potency | 
15 | CCCCCCCCCSCC1NC(O)C(O)C1O (stereo not shown) [Compound 21, 3,4-Dihydroxy-5-(nonylthiomethyl)pyrrolidin-2-ol] | inhibit las activity at all concentrations tested but only with moderate potency | 98 ± 5 |  | 116 ± 9 | 121 ± 14 | stimulated rhl activities with moderate potency | 
16 | CCCC(=O)N[C@H]1CCOC1=O [Compound C4-AHL, N-butanoyl-L-homoserine lactone, reference compound] |  |  |  |  |  | activated the rhl β-galactosidase reporter | 
